Test results from ChEMBL document CHEMBL1201862, “PubChem BioAssay data set” (2004).
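Results reflect a 48-hour exposure of cells in 96-well plates to compound at five concentrations. The concentration for 50% growth inhibition is given as GI50.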 Calls of active or inactive are those of the source. Cut-off read from the data, not from the text of the source: active = GI50 up to about 1.1 µM and inactive = higher.

What was measured:
Assay in all cases: inhibition of tumour cell growth, NCI panel, 48 h
[1] = tested on: IGROV-1
[2] = tested on: A498
[3] = tested on: UACC-257
[4] = tested on: EKVX
[5] = tested on: SK-MEL-28
[6] = tested on: NCI-H23
[7] = tested on: OVCAR-3
[8] = tested on: SF-295
[9] = tested on: RXF 393
[10] = tested on: KM12
[11] = tested on: HT-29
[12] = tested on: HCT-116
[13] = tested on: RXF 631
[14] = tested on: KM-20L2
[15] = tested on: CCRF-CEM
[16] = tested on: HOP-62
[17] = tested on: 786-0
[18] = tested on: RPMI-8226
[19] = tested on: K562
[20] = tested on: TK-10
[21] = tested on: DMS-114
[22] = tested on: M19-MEL
[23] = tested on: M14
[24] = tested on: SNB-19
[25] = tested on: SR
[26] = tested on: ACHN
[27] = tested on: SNB-78
[28] = tested on: SF-268
[29] = tested on: MOLT-4
[30] = tested on: SK-MEL-2
[31] = tested on: SNB-75
[32] = tested on: HCC 2998
[33] = tested on: DMS-273
[34] = tested on: CAKI-1
[35] = tested on: XF498
[36] = tested on: OVCAR-4
[37] = tested on: SK-MEL-5
[38] = tested on: COLO 205
[39] = tested on: SK-OV-3
[40] = tested on: Malme-3M
[41] = tested on: UO-31
[42] = tested on: NCI-H460
[43] = tested on: NCI-H226
[44] = tested on: OVCAR-5
[45] = tested on: SN12C
[46] = tested on: LXFL 529
[47] = tested on: DLD-1
[48] = tested on: OVCAR-8
[49] = tested on: NCI-H522
[50] = tested on: HCT-15
[51] = tested on: UACC-62
[52] = tested on: HOP-18
[53] = tested on: U-251
[54] = tested on: HL-60
[55] = tested on: SF-539
[56] = tested on: A549
[57] = tested on: LOX IMVI
[58] = tested on: SW-620
[59] = tested on: HOP-92

Measured: GI50

COC(=O)C(C(=O)C(=O)Nc1cccc(C)c1)C1=NC(N)SS1 (stereo unspecified)
> 100 µM: [50]
inactive: [1] > 100 µM | [2] > 100 µM | [3] > 100 µM | [4] > 100 µM | [5] > 100 µM | [6] > 100 µM | [7] > 100 µM | [8] > 100 µM | [9] > 100 µM | [10] > 100 µM | [11] > 100 µM | [12] > 100 µM | [13] > 100 µM | [14] > 100 µM | [15] > 100 µM | [16] > 100 µM | [17] > 100 µM | [18] > 100 µM | [19] > 100 µM | [20] > 100 µM | [21] > 100 µM | [22] > 100 µM | [23] > 100 µM | [24] > 100 µM | [25] > 100 µM | [26] > 100 µM | [27] > 100 µM | [28] > 100 µM | [29] > 100 µM | [30] > 100 µM | [31] > 100 µM | [32] > 100 µM | [33] > 100 µM | [34] > 100 µM | [35] > 100 µM | [36] > 100 µM | [37] > 100 µM | [38] > 100 µM | [39] > 100 µM | [40] > 100 µM | [41] > 100 µM | [42] > 100 µM | [43] > 100 µM | [44] > 100 µM | [45] > 100 µM | [46] > 100 µM | [47] > 100 µM | [48] > 100 µM | [49] > 100 µM | [51] > 100 µM | [52] > 100 µM | [53] > 100 µM | [54] > 100 µM | [55] > 100 µM | [56] > 100 µM | [57] > 100 µM | [58] > 100 µM

C/N=c1\ss/c(=N\C(=S)N(C)C)n1C1CCCCC1
> 31.6 µM: [50]
inactive: [1] > 31.6 µM | [2] > 31.6 µM | [3] > 31.6 µM | [4] > 31.6 µM | [5] > 31.6 µM | [6] > 31.6 µM | [7] > 31.6 µM | [8] > 31.6 µM | [9] > 31.6 µM | [10] > 31.6 µM | [11] > 31.6 µM | [12] > 10 µM | [13] > 100 µM | [14] > 31.6 µM | [15] > 31.6 µM | [16] > 100 µM | [17] > 10 µM | [18] > 100 µM | [19] > 31.6 µM | [20] > 31.6 µM | [21] > 31.6 µM | [22] > 31.6 µM | [23] > 10 µM | [24] > 31.6 µM | [26] > 31.6 µM | [59] > 10 µM | [27] > 31.6 µM | [28] > 31.6 µM | [29] > 31.6 µM | [30] > 31.6 µM | [31] > 10 µM | [32] > 31.6 µM | [33] > 31.6 µM | [34] > 31.6 µM | [35] > 31.6 µM | [36] > 31.6 µM | [37] > 31.6 µM | [38] > 31.6 µM | [39] 24.2 µM | [40] > 31.6 µM | [41] > 31.6 µM | [42] > 31.6 µM | [43] > 31.6 µM | [44] > 31.6 µM | [45] > 31.6 µM | [46] > 31.6 µM | [47] > 100 µM | [48] > 31.6 µM | [49] > 31.6 µM | [51] > 31.6 µM | [52] > 31.6 µM | [53] > 31.6 µM | [54] > 100 µM | [55] > 100 µM | [56] > 31.6 µM | [57] > 31.6 µM | [58] > 31.6 µM
